# Assay results: paper PMC8900826, “Structural basis for substrate recognition in the Phytolacca americana glycosyltransferase PaGT3” (Acta Crystallographica. Section D, Structural Biology, 2022)
# Columns and labels:
# Assay in all cases: X-ray crystal structure, […] A
# Assay type in all cases: binding
# PaGT3 [1] = molecular target: T1, PaGT3 (Phytolacca americana, UniProt B5MGN9); details: co-crystallized without acceptor; sugar-donor site; non-transferred donor analogue; also bound in 7vej and 7vek
# T1 construct: full length; N-terminal His6 tag with TEV site, cut off (one Gly left before Met1); expressed in E. coli BL21 (DE3); two molecules in the asymmetric unit
# T1 sequence (B5MGN9 entry or part of it): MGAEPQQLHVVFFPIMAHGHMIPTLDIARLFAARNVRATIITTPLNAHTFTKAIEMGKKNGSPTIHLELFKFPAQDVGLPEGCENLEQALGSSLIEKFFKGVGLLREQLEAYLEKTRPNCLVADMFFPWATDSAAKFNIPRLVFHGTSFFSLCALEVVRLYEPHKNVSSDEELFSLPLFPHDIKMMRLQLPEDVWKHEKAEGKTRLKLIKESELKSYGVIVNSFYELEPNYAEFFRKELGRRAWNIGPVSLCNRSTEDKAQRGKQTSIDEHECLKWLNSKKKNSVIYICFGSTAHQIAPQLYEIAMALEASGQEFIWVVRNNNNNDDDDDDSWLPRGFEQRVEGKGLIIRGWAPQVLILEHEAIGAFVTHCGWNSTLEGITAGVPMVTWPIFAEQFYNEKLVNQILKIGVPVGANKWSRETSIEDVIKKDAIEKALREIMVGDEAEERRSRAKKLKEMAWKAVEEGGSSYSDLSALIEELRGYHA
# PaGT3 [2] = molecular target: T1, PaGT3; details: soaked into PaGT3/UDP-2FGlc crystals; acceptor site, molecule B only, occupancy 0.8
# PaGT3 [3] = molecular target: T1, PaGT3; details: co-crystallized with UDP-2FGlc; acceptor site, both molecules, two different positions
smiles,measurement,setting,value
O=c1ccn([C@@H]2O[C@H](COP(=O)(O)OP(=O)(O)O[C@H]3O[C@H](CO)[C@@H](O)[C@H](O)[C@H]3F)[C@@H](O)[C@H]2O)c(=O)[nH]1 [UDP-2FGlc],"X-ray crystal structure, 2.20 A",PaGT3 [1],The crystal structure of PaGT3 with the sugar-donor analogue UDP-2FGlc was determined
COc1cc(CNC(=O)CCCC/C=C/C(C)C)ccc1O [capsaicin],"X-ray crystal structure, 2.60 A",PaGT3 [2],The calculated polder map confirms the occupancy of capsaicin in PaGT3 molecule B.
O=c1c(O)c(-c2ccc(O)cc2)oc2cc(O)cc(O)c12 [kaempferol],"X-ray crystal structure, 1.85 A",PaGT3 [3],The electron density of kaempferol in both molecules of the enzyme
